US20130064899A1, “SYNERGISTIC BIOCIDE COMPOSITION CONTAINING AT LEAST THREE BIOCIDE COMPONENTS” (THOR GMBH, priority 2010, published 2013)
Marks after values point to notes of the source that are not given here.

Legend:
[1] = system: Candida lipolytica (DSM 3286); test: Minimum inhibitory concentration and synergy index in Sabouraud maltose broth, Candida lipolytica; format: cell-based; settings: 72 hours at 25° C.; for SI (synergy index = Qa/QA + Qb/QB): below 1 = synergism
Procedure: (§1) A test was made of the synergism of a combination of BIT, zinc pyrithione or sodium pyrithione, and silver. The test organisms used were the yeasts Candida albicans (DSM 1386) and Candida lipolytica (DSM 3286). For the test, mixtures with different compositions of BIT, zinc pyrithione or sodium pyrithione, and silver were prepared and were tested for their activity on Candida albicans and Candida lipolytica.
(§2) The individual actives or actives mixtures were mixed in serial concentration series with nutrient broth (Sabouraud maltose broth) and inoculated with the respective test organisms. The cell density in the overall batch was in each case 10^6 microbes per ml.
(§3) The incubation time was 72 hours at 25° C. on a shaker at 120 rpm. This was followed by inspection for growth of Candida albicans and Candida lipolytica.
(§4) This method was used to determine the minimum inhibitory concentrations (MICS) of the combination Ag+BIT and ZnPy or NaPy, with Ag and BIT always being present in a 1:20 ratio. The MIC is the concentration at which there is no longer any hazing of the nutrient solution.
(§5) The synergism which occurred was represented numerically by calculation of the synergy index (SI). The calculation was made according to the common method of F. C. Kull et al., Applied Microbiology, vol. 9 (1961), p. 538. The SI variant was given by the following formula:
Synergy index SI=Qa/QA+Qb/QB
When this formula is applied to the BIT+pyrithione+silver biocide system tested here, the variables in the formula have the following definition: • Qa=Concentration of Ag+BIT in the Ag+BIT and ZnPy mixture • QA=Concentration of Ag+BIT as sole biocide • Qb=Concentration of ZnPy in the Ag+BIT and ZnPy mixture • QB=Concentration of ZnPy as sole biocide
If the synergy index has a value of more than 1, this means that antagonism is present. If the synergy index adopts a value of 1, this means that the two biocides have an additive effect.

[2] = system: Candida albicans (DSM 1386); test: Minimum inhibitory concentration and synergy index in Sabouraud maltose broth, Candida albicans; format: cell-based; settings: 72 hours at 25° C.
Procedure: as §1, §2, §3, §4, §5
Synergy index SI=Qa/QA+Qb/QB […]

[3] = concentration of ZnPy in the Ag + BIT and ZnPy mixture, *2 = QB, ZnPy as sole biocide

Molecule	SI (synergy index = Qa/QA + Qb/QB) ([1]; ZnPy series)	MIC Qb (ZnPy) [1, 3]	SI (synergy index = Qa/QA + Qb/QB) ([2]; below 1 = synergism)	MIC Qb (ZnPy) [2, 3]	SI (synergy index = Qa/QA + Qb/QB) ([1]; NaPy series)	MIC Qb (NaPy) ([1]; concentration of NaPy in the Ag + BIT and NaPy mixture, *2 = QB, NaPy as sole biocide)
zinc pyrithione [ZnPy]	1.00	7.5*^2 ppm	1.00	7.5*^2 ppm		
[Na+].[O-][n+]1ccccc1[S-] [NaPy, sodium pyrithione]					1.00	30*^2 ppm
